Source: patent publication US20240261266A1, “BENZIMIDAZOLE COMPOUND OR SALT THEREOF, CANINE FILARIASIS CONTROL AGENT CONTAINING SAME, AND METHOD OF USE THEREOF” (NIHON NOHYAKU CO., LTD., priority 2021, published 2024)

Test system: Canine filariae (Dirofilaria immitis) L-3 stage larvae
Experiment: Impact evaluation test on growth of canine filariae (L3 to L4)
Conditions: 168 h, read-out: growth inhibition rate (growth from L3-stage larvae to L4-stage larvae)

Q: For `CCCCC#Cc1ccc(-c2nc3c(Br)cc(Br)cc3[nH]2)o1` [Compound 1-11, 4,6-dibromo-2-(5-(1-hexynyl)-2-furyl)benzimidazole], which inhibition at 50 ppm is on record?
A: Its inhibition at 50 ppm is no less than 50%.
